The text below walks through data of patent US20230277630A1, “METHODS AND COMPOSITIONS FOR TREATING AMYOTROPHIC LATERAL SCLEROSIS” (Amylyx Pharmaceuticals, Inc., priority 2022, published 2023).

Series [1] is described as follows: Non-specific binding assessment, efflux transporter format (cell-free Transwell plates). The class given is in vitro ADME. Conditions: pH 7.4, all three replicates. The text has this: Triplicate wells were used for the assay (Table 31). The samples were withdrawn at pre-selected time points from the receiver and donor compartments and mixed with an equal volume of acetonitrile containing IS.

The target in the next series is T1, BCRP (Homo sapiens, UniProt Q9UNQ0).
T1 sequence (Q9UNQ0 1-655): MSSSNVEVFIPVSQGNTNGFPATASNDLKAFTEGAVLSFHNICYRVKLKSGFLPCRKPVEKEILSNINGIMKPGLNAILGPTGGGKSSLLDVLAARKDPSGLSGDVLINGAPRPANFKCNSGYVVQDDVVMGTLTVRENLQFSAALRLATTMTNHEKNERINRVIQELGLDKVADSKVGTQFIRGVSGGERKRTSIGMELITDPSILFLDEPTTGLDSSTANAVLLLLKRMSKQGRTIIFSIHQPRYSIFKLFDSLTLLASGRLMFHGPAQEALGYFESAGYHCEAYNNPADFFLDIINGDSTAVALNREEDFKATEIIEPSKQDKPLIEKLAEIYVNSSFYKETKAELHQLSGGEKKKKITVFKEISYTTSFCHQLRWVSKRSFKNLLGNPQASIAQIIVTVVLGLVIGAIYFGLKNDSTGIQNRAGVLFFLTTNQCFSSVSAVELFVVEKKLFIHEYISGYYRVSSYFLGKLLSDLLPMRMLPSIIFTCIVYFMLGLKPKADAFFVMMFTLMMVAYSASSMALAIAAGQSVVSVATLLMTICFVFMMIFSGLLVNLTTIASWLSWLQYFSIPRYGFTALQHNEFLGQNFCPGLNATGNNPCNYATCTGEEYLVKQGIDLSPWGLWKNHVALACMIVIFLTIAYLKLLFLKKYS
Nature of the series: BCRP IC50 assessment, bidirectional cladribine transport in C2BBe1 cells. The method, then:
After 30 minutes, the pre-incubation solution was aspirated.

The next series has as its target T2, OAT3 (Homo sapiens, UniProt Q8TCC7).
T2 sequence (Q8TCC7 1-542): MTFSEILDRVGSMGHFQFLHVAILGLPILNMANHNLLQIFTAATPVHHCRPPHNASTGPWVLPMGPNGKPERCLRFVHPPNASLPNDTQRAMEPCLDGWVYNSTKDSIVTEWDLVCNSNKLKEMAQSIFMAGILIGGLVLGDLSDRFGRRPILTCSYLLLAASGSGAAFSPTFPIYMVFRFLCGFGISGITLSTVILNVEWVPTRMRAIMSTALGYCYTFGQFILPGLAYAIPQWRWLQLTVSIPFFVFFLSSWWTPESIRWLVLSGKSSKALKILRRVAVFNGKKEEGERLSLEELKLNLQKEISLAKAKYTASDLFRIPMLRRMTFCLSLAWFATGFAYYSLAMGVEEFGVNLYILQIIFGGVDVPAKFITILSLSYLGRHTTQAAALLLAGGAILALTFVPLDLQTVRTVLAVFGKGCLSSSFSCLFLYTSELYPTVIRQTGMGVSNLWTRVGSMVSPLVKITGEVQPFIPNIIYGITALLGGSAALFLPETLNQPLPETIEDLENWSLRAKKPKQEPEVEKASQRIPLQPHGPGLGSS

A further series deals with T3, OATP1B3 (Homo sapiens, UniProt Q9NPD5).
T3 sequence (Q9NPD5 1-702): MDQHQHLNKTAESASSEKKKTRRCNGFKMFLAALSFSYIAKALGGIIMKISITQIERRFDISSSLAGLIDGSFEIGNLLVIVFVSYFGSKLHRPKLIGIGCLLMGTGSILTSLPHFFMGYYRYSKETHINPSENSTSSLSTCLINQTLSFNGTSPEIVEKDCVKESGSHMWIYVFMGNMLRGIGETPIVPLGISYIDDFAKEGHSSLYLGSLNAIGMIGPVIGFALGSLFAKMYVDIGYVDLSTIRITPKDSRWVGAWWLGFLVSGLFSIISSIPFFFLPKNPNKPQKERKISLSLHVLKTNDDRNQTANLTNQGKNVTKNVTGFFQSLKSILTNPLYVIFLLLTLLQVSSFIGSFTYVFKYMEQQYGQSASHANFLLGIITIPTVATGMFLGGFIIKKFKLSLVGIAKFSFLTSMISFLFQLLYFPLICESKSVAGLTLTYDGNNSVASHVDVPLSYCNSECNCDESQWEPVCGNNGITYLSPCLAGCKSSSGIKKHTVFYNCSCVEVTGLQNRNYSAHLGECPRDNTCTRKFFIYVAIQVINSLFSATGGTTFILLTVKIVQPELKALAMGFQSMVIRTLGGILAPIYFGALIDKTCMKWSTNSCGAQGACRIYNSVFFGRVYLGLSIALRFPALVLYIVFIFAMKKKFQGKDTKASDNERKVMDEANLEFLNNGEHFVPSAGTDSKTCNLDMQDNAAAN

Another series deals with T4, MATE1 (Homo sapiens, UniProt Q96FL8).
T4 sequence (Q96FL8 1-570): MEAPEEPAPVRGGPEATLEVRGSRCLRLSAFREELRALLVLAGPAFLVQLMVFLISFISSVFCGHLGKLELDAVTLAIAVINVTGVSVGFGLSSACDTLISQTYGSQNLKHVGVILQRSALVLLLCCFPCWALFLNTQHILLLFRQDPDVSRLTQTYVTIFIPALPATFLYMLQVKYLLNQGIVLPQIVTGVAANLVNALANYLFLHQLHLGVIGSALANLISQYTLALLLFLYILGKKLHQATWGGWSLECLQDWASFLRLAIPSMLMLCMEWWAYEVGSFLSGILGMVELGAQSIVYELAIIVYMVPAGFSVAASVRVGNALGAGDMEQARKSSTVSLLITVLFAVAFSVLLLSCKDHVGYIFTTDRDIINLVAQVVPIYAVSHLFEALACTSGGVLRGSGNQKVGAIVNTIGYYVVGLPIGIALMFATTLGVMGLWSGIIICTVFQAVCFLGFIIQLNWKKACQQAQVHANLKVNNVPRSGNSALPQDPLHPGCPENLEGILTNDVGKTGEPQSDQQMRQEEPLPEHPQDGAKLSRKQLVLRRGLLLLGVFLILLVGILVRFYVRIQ

Another series concerns the target P-gp (Homo sapiens, UniProt P08183). Nature of the series: P-gp IC50 assessment, bidirectional digoxin transport in MDR1-MDCK cells.

Several values for one entry are separate records, joined by “and”; a condition that tells them apart may be missing. Identical values can stand only once.

Chain of P-gp (P08183 whole entry): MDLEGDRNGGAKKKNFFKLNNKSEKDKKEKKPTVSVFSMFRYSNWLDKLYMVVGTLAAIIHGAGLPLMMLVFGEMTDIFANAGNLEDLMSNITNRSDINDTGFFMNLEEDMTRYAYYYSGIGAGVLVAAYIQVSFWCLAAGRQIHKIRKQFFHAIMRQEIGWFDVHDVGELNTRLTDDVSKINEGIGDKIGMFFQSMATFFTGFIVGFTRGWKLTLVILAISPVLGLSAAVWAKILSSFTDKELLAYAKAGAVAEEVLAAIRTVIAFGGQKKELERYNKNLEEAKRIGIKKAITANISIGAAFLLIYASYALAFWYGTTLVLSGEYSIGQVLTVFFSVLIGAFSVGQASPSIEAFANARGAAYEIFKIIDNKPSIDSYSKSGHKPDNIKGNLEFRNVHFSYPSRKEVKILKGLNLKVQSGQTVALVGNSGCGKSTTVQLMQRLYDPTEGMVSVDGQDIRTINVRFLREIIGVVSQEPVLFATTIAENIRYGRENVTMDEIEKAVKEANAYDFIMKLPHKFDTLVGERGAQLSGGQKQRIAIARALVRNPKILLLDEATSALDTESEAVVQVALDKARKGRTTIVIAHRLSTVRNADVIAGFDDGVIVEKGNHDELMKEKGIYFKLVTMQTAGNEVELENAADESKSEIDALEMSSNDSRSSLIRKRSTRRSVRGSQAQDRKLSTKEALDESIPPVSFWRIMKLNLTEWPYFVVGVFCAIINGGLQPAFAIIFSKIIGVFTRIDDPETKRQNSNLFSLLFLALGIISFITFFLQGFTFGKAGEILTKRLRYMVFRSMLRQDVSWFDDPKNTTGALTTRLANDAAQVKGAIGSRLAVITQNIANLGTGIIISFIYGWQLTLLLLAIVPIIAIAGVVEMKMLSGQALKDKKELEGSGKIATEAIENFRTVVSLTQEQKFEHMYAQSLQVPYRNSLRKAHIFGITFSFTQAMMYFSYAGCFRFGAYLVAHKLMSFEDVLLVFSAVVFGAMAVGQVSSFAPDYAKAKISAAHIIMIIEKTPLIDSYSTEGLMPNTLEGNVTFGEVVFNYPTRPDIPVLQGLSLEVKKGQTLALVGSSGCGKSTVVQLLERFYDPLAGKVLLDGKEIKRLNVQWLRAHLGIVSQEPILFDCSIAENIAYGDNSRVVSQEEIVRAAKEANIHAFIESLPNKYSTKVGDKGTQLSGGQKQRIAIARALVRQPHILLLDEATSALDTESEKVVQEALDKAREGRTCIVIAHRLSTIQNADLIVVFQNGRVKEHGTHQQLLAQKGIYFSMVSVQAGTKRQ

Take `O=C(O)CCCc1ccccc1` [PB, sodium phenylbutyrate]: the recovery in series [1] was over 80%. Besides, the IC50 (in general, the midpoint of a concentration-inhibition curve) at BCRP is 1790 to 5370 µM; on OAT3, 4930 to 14800 µM; at OATP1B3 it was 3630 to 10900 µM; at MATE1 it was 24600 to 73900 µM; against P-gp it was 7160 to 21500 µM.

Take `C[C@H](CCC(=O)NCCS(=O)(=O)O)[C@H]1CC[C@H]2[C@@H]3[C@@H](O)C[C@@H]4C[C@H](O)CC[C@]4(C)[C@H]3CC[C@]12C` [TUDCA, tauroursodeoxycholic acid]: the recovery in series [1] is over 80%. In addition, the IC50 against BCRP was 222 to 667 µM; against OAT3, 54 to 162 µM and 5.4 to 162 µM; at OATP1B3, 38.7 to 116 µM; at MATE1 it was 270 to 810 µM; at P-gp, 889 to 2670 µM.
